Measured values published in patent US20070238661A1, “Substance P treatment for hepatitis C” (priority 2006, published 2007).

Tests used:
[1] = test system: A/Hong Kong 8/68 influenza virus; set-up: species or system C57BL/6 mice; conditions: mouse, in vivo
lung protein alterations = test: Acute formalin exposure lung injury model, lung protein analysis by two-dimensional gel electrophoresis; format: in vivo, Fischer 344 rats
Protocol: In a third system, we sought to determine if Sar^9, Met (O2)^11-substance P-treated Fischer 344 rats who were exposed to 67 mg/m^3 […] aerosolize formalin for 1.5 minutes would attenuate lung protein alterations. At approximately 42 minutes post-formalin or air exposure, rat lungs were removed for protein analysis. […] Among these 71 proteins were fibrinogen-related proteins.

Hepatitis C virus = conditions: substance P aerosol combined with standard drug treatment of ribavirin and interferon alpha

Molecule	development of influenza symptoms (decreased body mass, fever, dehydration, nasal discharge) [1]	leukotriene B4 levels relative to A/Hong Kong 8/68 virus only mice [1]	lung cell counts after broncho-alveolar lavage [1]	signs of lung injury (electron micrographs) [1]	number of lung proteins whose formalin-mediated abundance changes were attenuated (lung protein alterations; 67 mg/m^3 aerosolized formalin for 1.5 minutes, lungs removed about 42 minutes post-exposure, includes fibrinogen-related proteins)	lung fibrinogen concentrations after acute formalin exposure (proteomic analyses) (lung protein alterations; acute lung injury model)	deleterious effects of ribavirin and interferon alpha (loss of appetite, nausea, vomiting, weight loss) (Hepatitis C virus)
Sar^9, Met (O2)^11-substance P	did not develop influenza symptoms	33%	normal lung cell counts	did not observe any signs of lung injury	71 proteins	preserve fibrinogen concentrations	
CSCC[C@H](NC(=O)[C@H](CC(C)C)NC(=O)CNC(=O)[C@H](Cc1ccccc1)NC(=O)[C@H](Cc1ccccc1)NC(=O)[C@H](CCC(N)=O)NC(=O)[C@H](CCC(N)=O)NC(=O)[C@@H]1CCCN1C(=O)[C@H](CCCCN)NC(=O)[C@@H]1CCCN1C(=O)[C@@H](N)CCCN=C(N)N)C(N)=O [substance P]							eliminated
